Data: patent US20190376039A1, “CELLS WITH IMPROVED INWARD RECTIFIER CURRENT” (priority 2018, published 2019)

What was measured:
[1] = tested on: ES-Kir2.1 and iPS-Kir2.1 cell lines; experiment: Initiation of cardiomyocyte differentiation (Day 0 medium); assay type: cell-based, human; settings: 12 μM CHIR99021 in RPMI/B27-insulin
Method: The ES-Kir2.1 and iPS-Kir2.1 cell lines were cultured in feeder-free media and prepared for differentiation as previously described with modifications (see, e.g., Lian et al. (2012) “Robust cardiomyocyte differentiation from human pluripotent stem cells via temporal modulation of canonical Wnt signaling” Proc Natl Acad Sci USA 109: E1848-57; Lian et al. (2013) “Directed cardiomyocyte differentiation from human pluripotent stem cells by modulating Wnt/6-catenin signaling under fully defined conditions” Nature Protocols 8: 162-75, each of which is incorporated herein by reference in its entirety). In particular, five days prior to differentiation (“Differentiation Day −5”), cells were harvested and seeded. Media was removed from the stem cell cultures and the cells were and washed with 1 mL DPBS per well. Next, 1 mL of Versene was added to each well and the cells were incubated at 37° C. for 5 minutes. Cells were transferred to a 50-ml tube, an equal volume of medium was added, and the cells were resuspended by gentle pipetting to singularize the cells. Cells were counted, pelleted, and resuspended in culture medium (e.g., mTeSR1, Stem Flex, etc.) to provide cells at a concentration that is pipetted into 6-well plates at approximately 2 million cells per 6-well plate. […]

[2] = tested on: IK1-induced ventricular-like SC-CMs; experiment: Action potentials under current clamp in paced IK1-induced SC-CMs (di-LQTS model); settings: for slope of linear regression, EAD take-off potential vs. peak EAD voltage: 100 nM E4031; for APD10 / APD50 / APD70 / APD90 / RMP: E4031 20 nM, mean SE
Method: SC-CMs were singularized and plated before cellular electrophysiology experiments on 12-mm poly-d-lysine/laminin or SyntheMax pre-coated coverslips. IK1 was induced by treating singularized cells with doxycycline (2 μM) (Thermo Fisher Scientific) for 48-72 hours prior to cellular electrophysiology analysis. Borosilicate glass pipettes (3-4 MΩ) were used (Model P-97; Sutter Instruments, Novato, Calif.). Whole cell capacitance was calculated by using the time domain technique (20).
AP were measured under current clamp at 32° C. using an Axopatch 200B amplifier and pCLAMP 10 (Molecular Devices, Sunnyvale, Calif.). […] The pipette solution comprised 150 mM K-gluconate, 5 mM EGTA, 10 mM HEPES, and 5 mM MgATP (pH 7.2, KOH). Myocytes were paced at 0.5, 1, 2, and 3 Hz with a depolarizing pulse from a programmable digital stimulator (D55000; WPI, Sarasota, Fla.). AP properties including AP amplitude; resting membrane potential; AP duration at 10% (APD10), 50% (APD50), 70% (APD70), and 90% (APD90) of repolarization; and maximum upstroke velocity (dV/dtmax) were measured (pCLAMP 10; Matlab 6.0, Natick, Mass.). […] Myocytes were paced at 0.5 and 1 Hz. […] AP properties identified above were re-measured.

[3] = 20 nM E4031, 0.5 Hz pacing, p<0.01
[4] = 0.5 Hz pacing, E4031 20 nM and 100 nM, ATX-II 30 nM
[5] = drug vs baseline, E4031, ATX-II 30 nM

## Cc1c[nH]c(-c2cnc(NCCNc3ccc(C#N)cn3)nc2-c2ccc(Cl)cc2Cl)n1 [CHIR99021]
[1]
  cell killing at initiation of differentiation: kills all or most of the cells

## Cc1cccc(CCN2CCC(C(=O)c3ccc(NS(C)(=O)=O)cc3)CC2)n1 [E4031]
[2]; 20 nM E4031, 0.5 Hz pacing
  effect on APD10 compared with control: No significant effect
  effect on APD50 compared with control: No significant effect
[2]; [3]
  effect on APD70 compared with control: significantly prolongs
  effect on APD90 compared with control: significantly prolongs
[2]; FIG. 4C
  slope of linear regression, EAD take-off potential vs. peak EAD voltage: −2.6±0.1
[2]; FIG. 4D, second independent experiment
  slope of linear regression, EAD take-off potential vs. peak EAD voltage: −1.68±0.09
[2]; [4]
  AP prolongation (APD) compared to control: dose-dependent AP prolongation
[2]; 0.5 Hz pacing, ATX-II 30 nM
  APD10: 131.1 ± 53.4 ms
  APD50: 633.8 ± 153.2 ms
  APD70: 767.5 ± 164.8 ms
  APD90: 802.4 ± 172.0 ms
  RMP: −70.6 ± 4.11 mV
[2]; [5]
  effect on RMP: remains normally polarized and stable

## ATX-II: late sodium current agonist (Alamone Labs); late INa enhancing drug (delayed channel inactivation)
[2]; [4]
  AP prolongation (APD) compared to control: markedly increased
  induction of early afterdepolarizations (EADs): did not occur
[2]; 0.5 Hz pacing, ATX-II 30 nM
  APD10: 45.2 ± 25.0 ms
  APD50: 869.4 ± 111.7 ms
  APD70: 1025.6 ± 107.4 ms
  APD90: 1056.9 ± 106.5 ms
  RMP: −76.2 ± 3.65 mV
[2]; [5]
  effect on RMP: no difference
  effect on dV/dt max: no difference
